Test results from patent US12291518B2, “Thyroid hormone receptor agonists and use thereof” (Eccogene Inc., priority 2020, dated 2025).

Key:
THR beta-LBD = biological target: T1, THR beta-LBD (Homo sapiens, UniProt P10828); experiment: THR-β Coactivator Peptide Recruitment Assay (LanthaScreen TR-FRET); format: biochemical; details: TR-FRET coactivator recruitment, THR beta-LBD 0.5 nM; for EC50: read-out: THRβ EC50
T1 construct: THR beta-LBD (the final concentration is 0.5 nM) was added to the 384-well assay plate; purchased Invitrogen PV4686
T1 sequence (P10828 217-461 limits assumed): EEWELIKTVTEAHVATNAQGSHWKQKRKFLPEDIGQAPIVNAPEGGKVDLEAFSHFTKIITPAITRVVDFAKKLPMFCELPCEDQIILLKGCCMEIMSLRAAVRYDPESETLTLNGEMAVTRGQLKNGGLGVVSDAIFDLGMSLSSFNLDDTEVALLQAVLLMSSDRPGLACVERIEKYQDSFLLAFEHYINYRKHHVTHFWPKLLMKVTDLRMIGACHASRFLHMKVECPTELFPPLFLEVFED
Outline: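 Agonist-driven coactivator recruitment read as a 520/495 nm TR-FRET emission ratio after 2 h at room temperature. Final concentrations: THR beta-LBD 0.5 nM, fluorescein-SRC2-2 peptide 0.1 nM, terbium anti-GST antibody 2 nM. EC50 from four-parameter dose-response fitting.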

THR alpha-LBD = biological target: T2, THR alpha-LBD (Homo sapiens, UniProt P10827); experiment: THR-α Coactivator Peptide Recruitment Assay (LanthaScreen TR-FRET); format: biochemical; details: TR-FRET coactivator recruitment, THR alpha-LBD 0.25 nM; for EC50: read-out: THRα EC50
T2 construct: except that THR alpha-LBD of a final concentration 0.25 nM was used; purchased Invitrogen PV4687
T2 sequence (P10827 163-410 isoform P10827-2 limits assumed, other chains not shown): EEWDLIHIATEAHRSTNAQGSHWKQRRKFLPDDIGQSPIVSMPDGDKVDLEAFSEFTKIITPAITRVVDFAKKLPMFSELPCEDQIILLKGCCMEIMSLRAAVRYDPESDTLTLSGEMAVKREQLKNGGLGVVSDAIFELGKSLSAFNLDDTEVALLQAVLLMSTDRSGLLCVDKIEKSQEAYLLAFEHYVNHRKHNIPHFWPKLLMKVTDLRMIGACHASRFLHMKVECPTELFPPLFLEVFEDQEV
Outline: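 TR-FRET coactivator recruitment with THR alpha-LBD at 0.25 nM final, Fluorescein-SRC2-2 peptide 0.1 nM and Tb-labeled anti-GST antibody 2 nM; 2 h incubation at room temperature. 520/495 nm emission ratio fitted to a four-parameter sigmoidal curve to give EC50.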

SMILES: O=c1[nH]c(=O)n(-c2cc(Cl)c(Oc3cc(S(=O)(=O)NCC(F)F)c(O)cn3)c(Cl)c2)nc1C(F)F [Compound 111, 2-(2,6-dichloro-4-(6-(difluoromethyl)-3,5-dioxo-4,5-dihydro-1,2,4-triazin-2(3H)-yl)phenoxy)-N-(2,2-difluoroethyl)-5-hydroxypyridine-4-sulfonamide]
- THRβ Emax (THR beta-LBD): A (90~110)
- EC50 (THR beta-LBD): < 2 nM
- THRα Emax (THR alpha-LBD): A (85~110)
- EC50 (THR alpha-LBD): 2 to 200 nM

SMILES: CCNS(=O)(=O)c1cc(Oc2c(Cl)cc(-n3nc(C(F)F)c(=O)[nH]c3=O)cc2Cl)ncc1O [Compound 112, 2-(2,6-dichloro-4-(6-(difluoromethyl)-3,5-dioxo-4,5-dihydro-1,2,4-triazin-2(3H)-yl)phenoxy)-N-ethyl-5-hydroxypyridine-4-sulfonamide]
- THRβ Emax (THR beta-LBD): A (90~110)
- EC50 (THR beta-LBD): < 2 nM
- THRα Emax (THR alpha-LBD): A (85~110)
- EC50 (THR alpha-LBD): 2 to 200 nM

SMILES: CN(C)S(=O)(=O)c1cc(Oc2c(Cl)cc(-n3nc(C(F)F)c(=O)[nH]c3=O)cc2Cl)ncc1O [Compound 113, 2-(2,6-dichloro-4-(6-(difluoromethyl)-3,5-dioxo-4,5-dihydro-1,2,4-triazin-2(3H)-yl)phenoxy)-5-hydroxy-N,N-dimethylpyridine-4-sulfonamide]
- THRβ Emax (THR beta-LBD): B (75~90)
- EC50 (THR beta-LBD): < 2 nM
- THRα Emax (THR alpha-LBD): A (85~110)
- EC50 (THR alpha-LBD): 2 to 200 nM

SMILES: N#Cc1nn(-c2cc(Cl)c(Oc3cc(S(=O)(=O)NC4CC4)c(O)cn3)c(Cl)c2)c(=O)[nH]c1=O [Compound 114, N-cyclopropyl-2-(2,6-dichloro-4-(6-cyano-3,5-dioxo-4,5-dihydro-1,2,4-triazin-2(3H)-yl)phenoxy)-5-hydroxypyridine-4-sulfonamide]
- THRβ Emax (THR beta-LBD): A (90~110)
- EC50 (THR beta-LBD): < 2 nM
- THRα Emax (THR alpha-LBD): A (85~110)
- EC50 (THR alpha-LBD): 2 to 200 nM

SMILES: O=C(NC1CCC1)C1(NS(=O)(=O)c2cc(Oc3c(Cl)cc(-n4nc(C(F)F)c(=O)[nH]c4=O)cc3Cl)ncc2O)CC1 [Compound 115, N-cyclobutyl-1-[[2-[2,6-dichloro-4-[6-(difluoromethyl)-3,5-dioxo-1,2,4-triazin-2-yl]phenoxy]-5-hydroxy-4-pyridyl]sulfonylamino]cyclopropanecarboxamide]
- THRβ Emax (THR beta-LBD): C (<75)
- EC50 (THR beta-LBD): 2 to 20 nM
- THRα Emax (THR alpha-LBD): B (40~85)
- EC50 (THR alpha-LBD): > 1000 nM

SMILES: O=C(NC1CCCC1)C1(NS(=O)(=O)c2cc(Oc3c(Cl)cc(-n4nc(C(F)F)c(=O)[nH]c4=O)cc3Cl)ncc2O)CC1 [Compound 116, N-cyclopentyl-1-((2-(2,6-dichloro-4-(6-(difluoromethyl)-3,5-dioxo-4,5-dihydro-1,2,4-triazin-2(3H)-yl)phenoxy)-5-hydroxypyridine)-4-sulfonamido)cyclopropane-1-carboxamide]
- THRβ Emax (THR beta-LBD): C (<75)
- EC50 (THR beta-LBD): 20 to 100 nM
- THRα Emax (THR alpha-LBD): B (40~85)
- EC50 (THR alpha-LBD): > 1000 nM

SMILES: O=C(NCC(F)F)C1(NS(=O)(=O)c2cc(Oc3c(Cl)cc(-n4nc(C(F)F)c(=O)[nH]c4=O)cc3Cl)ncc2O)CC1 [Compound 117, 1-((2-(2,6-dichloro-4-(6-(difluoromethyl)-3,5-dioxo-4,5-dihydro-1,2,4-triazin-2(3H)-yl)phenoxy)-5-hydroxypyridine)-4-sulfonamido)-N-(2,2-difluoroethyl)cyclopropane-1-carboxamide]
- THRβ Emax (THR beta-LBD): C (<75)
- EC50 (THR beta-LBD): 20 to 100 nM
- THRα Emax (THR alpha-LBD): C (<40)
- EC50 (THR alpha-LBD): > 1000 nM

SMILES: O=C(N1CCCC1)C1(NS(=O)(=O)c2cc(Oc3c(Cl)cc(-n4nc(C(F)F)c(=O)[nH]c4=O)cc3Cl)ncc2O)CC1 [Compound 118, 2-(2,6-dichloro-4-(6-(difluoromethyl)-3,5-dioxo-4,5-dihydro-1,2,4-triazin-2(3H)-yl)phenoxy)-5-hydroxy-N-(1-(pyrrolidine-1-carbonyl)cyclopropyl)pyridine-4-sulfonamide]
- THRβ Emax (THR beta-LBD): B (75~90)
- EC50 (THR beta-LBD): > 100 nM
- THRα Emax (THR alpha-LBD): C (<40)
- EC50 (THR alpha-LBD): > 1000 nM

SMILES: O=C(CNS(=O)(=O)c1cc(Oc2c(Cl)cc(-n3nc(C(F)F)c(=O)[nH]c3=O)cc2Cl)ncc1O)NC1CCC1 [Compound 119, N-cyclobutyl-2-[[2-[2,6-dichloro-4-[6-(difluoromethyl)-3,5-dioxo-1,2,4-triazin-2-yl]-phenoxy]-5-hydroxy-4-pyridyl]-sulfonylamino]-acetamide]
- THRβ Emax (THR beta-LBD): C (<75)
- EC50 (THR beta-LBD): > 100 nM
- THRα Emax (THR alpha-LBD): C (<40)
- EC50 (THR alpha-LBD): > 1000 nM

SMILES: O=C(CNS(=O)(=O)c1cc(Oc2c(Cl)cc(-n3nc(C(F)F)c(=O)[nH]c3=O)cc2Cl)ncc1O)NC1CC1 [Compound 120, N-cyclopropyl-2-((2-(2,6-dichloro-4-(6-(difluoromethyl)-3,5-dioxo-4,5-dihydro-1,2,4-triazin-2(3H)-yl)phenoxy)-5-hydroxypyridine)-4-sulfonamido)acetamide]
- THRβ Emax (THR beta-LBD): C (<75)
- EC50 (THR beta-LBD): > 100 nM
- THRα Emax (THR alpha-LBD): C (<40)
- EC50 (THR alpha-LBD): > 1000 nM

SMILES: O=C(NC1CC1)C1(NS(=O)(=O)c2cc(Oc3c(Cl)cc(-n4nc(C(F)F)c(=O)[nH]c4=O)cc3Cl)ncc2O)CCC1 [Compound 121, N-cyclopropyl-1-((2-(2,6-dichloro-4-(6-(difluoromethyl)-3,5-dioxo-4,5-dihydro-1,2,4-triazin-2(3H)-yl)phenoxy)-5-hydroxypyridine)-4-sulfonamido)cyclobutane-1-carboxamide]
- THRβ Emax (THR beta-LBD): C (<75)
- EC50 (THR beta-LBD): > 100 nM
- THRα Emax (THR alpha-LBD): C (<40)
- EC50 (THR alpha-LBD): > 1000 nM

SMILES: CC1(C)CC(NS(=O)(=O)c2cc(Oc3c(Cl)cc(-n4nc(C(F)F)c(=O)[nH]c4=O)cc3Cl)ncc2O)C1 [Compound 122]
- THRβ Emax (THR beta-LBD): C (<75)
- EC50 (THR beta-LBD): 2 to 20 nM
- THRα Emax (THR alpha-LBD): B (40~85)
- EC50 (THR alpha-LBD): 200 to 1000 nM

SMILES: O=c1[nH]c(=O)n(-c2cc(Cl)c(Oc3cc(S(=O)(=O)NC4CCC4)c(O)cn3)c(Cl)c2)nc1C(F)F [Compound 123, N-cyclobutyl-2-(2,6-dichloro-4-(6-(difluoromethyl)-3,5-dioxo-4,5-dihydro-1,2,4-triazin-2(3H)-yl)phenoxy)-5-hydroxypyridine-4-sulfonamide]
- THRβ Emax (THR beta-LBD): A (90~110)
- EC50 (THR beta-LBD): < 2 nM
- THRα Emax (THR alpha-LBD): A (85~110)
- EC50 (THR alpha-LBD): 2 to 200 nM

SMILES: O=c1[nH]c(=O)n(-c2cc(Cl)c(Oc3cc(S(=O)(=O)NC4CCCC4)c(O)cn3)c(Cl)c2)nc1C(F)F [Compound 124, N-cyclopentyl-2-(2,6-dichloro-4-(6-(difluoromethyl)-3,5-dioxo-4,5-dihydro-1,2,4-triazin-2(3H)-yl)phenoxy)-5-hydroxypyridine-4-sulfonamide]
- THRβ Emax (THR beta-LBD): B (75~90)
- EC50 (THR beta-LBD): < 2 nM
- THRα Emax (THR alpha-LBD): B (40~85)
- EC50 (THR alpha-LBD): 2 to 200 nM

SMILES: N#C[C@H]1C[C@@H](NS(=O)(=O)c2cc(Oc3c(Cl)cc(-n4nc(C(F)F)c(=O)[nH]c4=O)cc3Cl)ncc2O)C1 [Compound 125, N-((1s,3s)-3-cyanocyclobutyl)-2-(2,6-dichloro-4-(6-(difluoromethyl)-3,5-dioxo-4,5-dihydro-1,2,4-triazin-2(3H)-yl)phenoxy)-5-hydroxypyridine-4-sulfonamide]
- THRβ Emax (THR beta-LBD): B (75~90)
- EC50 (THR beta-LBD): 2 to 20 nM
- THRα Emax (THR alpha-LBD): B (40~85)
- EC50 (THR alpha-LBD): 200 to 1000 nM

SMILES: CNS(=O)(=O)c1cc(Oc2c(Cl)cc(-n3nc(C(F)F)c(=O)[nH]c3=O)cc2Cl)ncc1OC [Compound 127, 2-(2,6-dichloro-4-(6-(difluoromethyl)-3,5-dioxo-4,5-dihydro-1,2,4-triazin-2(3H)-yl)phenoxy)-5-methoxy-N-methylpyridine-4-sulfonamide]
- THRβ Emax (THR beta-LBD): C (<75)
- EC50 (THR beta-LBD): 20 to 100 nM
- THRα Emax (THR alpha-LBD): C (<40)
- EC50 (THR alpha-LBD): 200 to 1000 nM

SMILES: O=c1[nH]c(=O)n(-c2cc(Cl)c(Oc3cc(S(=O)(=O)C4CC4)c(O)cn3)c(Cl)c2)nc1C(F)F [Compound 128, 2-[3,5-dichloro-4-[(4-cyclopropylsulfonyl-5-hydroxy-2-pyridyl)oxy]phenyl]-6-(difluoromethyl)-1,2,4-triazine-3,5-dione]
- THRβ Emax (THR beta-LBD): B (75~90)
- EC50 (THR beta-LBD): < 2 nM
- THRα Emax (THR alpha-LBD): A (85~110)
- EC50 (THR alpha-LBD): 2 to 200 nM

SMILES: N#Cc1nn(-c2cc(Cl)c(Oc3cc(S(=O)(=O)C4CC4)c(O)cn3)c(Cl)c2)c(=O)[nH]c1=O [Compound 129, 2-(3,5-dichloro-4-((4-(cyclopropylsulfonyl)-5-hydroxypyridin-2-yl)oxy)phenyl)-3,5-dioxo-2,3,4,5-tetrahydro-1,2,4-triazine-6-carbonitrile]
- THRβ Emax (THR beta-LBD): A (90~110)
- EC50 (THR beta-LBD): 2 to 20 nM
- THRα Emax (THR alpha-LBD): B (40~85)
- EC50 (THR alpha-LBD): 2 to 200 nM

SMILES: N#C[C@H]1C[C@H](NS(=O)(=O)c2cc(Oc3c(Cl)cc(-n4nc(C(F)F)c(=O)[nH]c4=O)cc3Cl)ncc2O)C1 [Compound 130, N-(3-cyanocyclobutyl)-2-[2,6-dichloro-4-[6-(difluoromethyl)-3,5-dioxo-1,2,4-triazin-2-yl]phenoxy]-5-hydroxy-pyridine-4-sulfonamide]
- THRβ Emax (THR beta-LBD): B (75~90)
- EC50 (THR beta-LBD): 2 to 20 nM
- THRα Emax (THR alpha-LBD): B (40~85)
- EC50 (THR alpha-LBD): 200 to 1000 nM
